Patent publication US20240165132A1, “METHODS AND MATERIALS FOR TREATING CANCER” (Mayo Foundation for Medical Education and Research, priority 2021, published 2024)
Where two headings read alike, the source gives them in different places.

Assays:
[1] = test system: GBM12 parental line and TMZ-resistant subclones; test: TMZ re-challenge plus Bcl-XL inhibitor, CellTiter-Glo; format: cell-based, human; conditions: 10 μM TMZ plus 1 μM inhibitor, 5 days
GBM39 = test: Senolytic drug screen, CellTiter-Glo viability; format: cell-based, human; conditions: for IC50: Homo sapiens
Method: (§1) Human patient-derived glioblastoma lines were utilized and were cultured according to established protocols. Tumor lines maintained as patient-derived xenografts (PDX) are from the National PDX resource. Such lines are designated as “GBM-6, 10, 12, 39, 76, 123, 164, or 196”. Implantation of patient-derived glioblastoma cells, serial passage of flank tumor xenografts, and short-term explant culturing were done as described elsewhere, with some lines maintained in serum-containing media, and some lines maintained in serum free media as noted in Table 2 (see, for example, Carlson et al., Current protocols in pharmacology. Chapter 14(14):Unit 14.16 (2011)). Some cell lines were maintained from time of harvest as in vitro cell lines rather than PDX lines, as described elsewhere (see, for example, Himes et al., Neuro-oncology. 22(7):967-978 (2020)). Such lines are designated as dBT114, dBT116, dBT120, dBT132 (dBT=differentiated brain tumor). Culture conditions were unchanged after induction of senescence.
(§2) After plating, cells were maintained in 10 cm culture dishes for 2-4 days until >50% confluent. Cells were then treated with TMZ for 7 days or radiation (cesium gamma radiator) with varying doses. Most experiments were performed after use of 15 Gy to induce senescence. Radiation and TMZ each caused death of a variable percentage of cells in the ensuing days. “Senescent” tumor cells used for experiments are designated by those that survive following TMZ or radiation treatments. Except for radiation doses of 4 Gy or below, no visible proliferation occurred within 1 month after treatment with TMZ or radiation. For initial screening of senolytic drugs, cells were maintained for at least 20 days after radiation or TMZ prior to re-plating cells into black walled optical 96-well plates (5000 cells/well) for doing drug treatment.
(§3) Human glioblastoma cells were exposed to 10, 15 or 20 Gy radiation as indicated above. All GBM lines tested (Table 2) yielded a subpopulation of surviving non-proliferative cells used for subsequent experiments, with the exception of GM43 which yielded insufficient surviving cells for senescence experiments. All senolytic drugs used in this study were dissolved in DMSO (Table 1). Control (0 nM) cells were treated with the same dose of DMSO as cells with the highest drug concentration. Unless specified otherwise, cells were maintained in drug-containing media for four days prior to evaluation of cell viability using ATP lite, CellTiter-Glo assay according to company protocol (Cat #G7570). For all experiments, luminescence values are normalized to the 0 nM control for that cell line and radiation dose. All dose response graphs are depicted standard error of the mean (SEM) of 3 technical replicates at each concentration. Representative data are shown for experiments performed in independent replicates.
(§4) Multiple linear regressions were used to assess the relationship of drug dose and treatment (e.g. control, radiation, TMZ) with cell inhibition within each cell line. For these models, cell inhibition was the outcome and drug dose, treatment, and the drug dose by treatment interaction were the independent predictors. If the drug dose by treatment interaction was significant (p<0.05), pairwise comparisons were made at each drug dose between treatment groups using a two-sample t-test. Statistical analysis was performed in Microsoft Excel. IC50 was calculated by nonlinear regression (Curve fit) of dose-response inhibition curve by using GraphPad prism 8.4.2.

dBT132 = test: Senolytic drug screen, CellTiter-Glo viability; format: cell-based, human; conditions: dBT132 (P10); for IC50: Homo sapiens, read-out: IC50 of A1331852
Method: as §1, §2, §3, §4

GBM123 = test: Senolytic drug screen, CellTiter-Glo viability; format: cell-based, human; conditions: GBM123 (P3); for IC50: Homo sapiens, read-out: IC50 of A1331852
Method: as §1, §2, §3, §4

GBM76 = test: Senolytic drug screen, CellTiter-Glo viability; format: cell-based, human; conditions: for IC50: Homo sapiens
Method: as §1, §2, §3, §4

GBM12 = test: Senolytic drug screen, CellTiter-Glo viability; format: cell-based, human; conditions: GBM12 (P3); for IC50: Homo sapiens, read-out: IC50 of A1331852
Method: as §1, §2, §3, §4

dBT120 = test: Senolytic drug screen, CellTiter-Glo viability; format: cell-based, human; conditions: dBT120 (P10); for IC50: Homo sapiens, read-out: IC50 of A1331852
Method: as §1, §2, §3, §4

[2] = test system: radiated orthotopic glioma; test: Convection-enhanced delivery into radiated orthotopic tumors, tumor bioluminescence; format: in vivo, mice; conditions: CED 1 month after radiation, read 1 further month thereafter; vehicle 39.7%
Method: FIGS. 18A-18C show in vivo senescent glioblastoma tumor ablation by convection enhanced drug delivery.
Senolytic drugs were screened using human glioblastoma cells radiated with 10-20 Gy, or 100 uM TMZ and then maintained for 3 to 4 weeks. Senescence was confirmed via beta-galactosidase staining, elevated p21 transcript and loss of nuclear […] immunohistochemistry (FIGS. 16A-16B). IC50 was compared in radiated (senescent) vs non-radiated cells using the cell-titer glow assay. 1 month after in vivo radiation of intracranial tumors, convection-enhanced delivery (CED) of drug was performed. Any change in tumor bioluminescence was evaluated 1 month thereafter. CED infusion efficacy was confirmed via MRI.

Q: How did the “Ablation of TMZ-resistant subclones” value ([1]; 3 TMZ-resistant subclones (R)) turn out when Cc1c(-c2ccc(N3CCc4cccc(C(=O)Nc5nc6ccccc6s5)c4C3)nc2C(=O)O)cnn1CC12CC3CC(CC(C3)C1)C2 [A1331852] was run?
A: Its value is “induced complete ablation”.

Q: And the “Ablation of parental TMZ-sensitive cells” value ([1]; parental cells (S))?
A: The value was “increased TMA-induced ablation”.

Q: And the “Relative sensitivity (RS)” value (GBM39; GBM39 (P2-3), control vs 15Gy)?
A: Its value is 513.8149 ± 711.64.

Q: What about the “Relative sensitivity (RS)” value (GBM39; GBM39 (P2-3), control vs TMZ) of the same molecule?
A: The value was 41.02 ± 2.182.

Q: What about the “Relative sensitivity (RS)” value (GBM39; GBM39 (P3), control vs 20Gy) of the same molecule?
A: Its value is 16.66 ± 11.88.

Q: And the “IC50 in radiated vs non-radiated cells” value (GBM39; GBM39, 15 Gy vs 0 Gy, 21 days after radiation, 4 days drug, p<0.0001)?
A: The value was “lower IC50 in radiated cells”.

Q: And the IC50 (GBM39; GBM39, read-out: IC50 of A1331852, 15Gy, GBM39 (P2-3), 15Gy radiated)?
A: The IC50 was 80.5 ± 93 nM.

Q: And the IC50 (GBM39; GBM39, read-out: IC50 of A1331852, 20Gy, GBM39 (P3), 20Gy radiated)?
A: Its IC50 is 71 ± 10.3 nM.

Q: What about the IC50 (GBM39; GBM39, read-out: IC50 of A1331852, Control, GBM39 (P2-3), control of 15Gy series) of the same molecule?
A: Its IC50 is 108000 ± 152000 nM.

Q: And the IC50 (GBM39; GBM39, read-out: IC50 of A1331852, Control, GBM39 (P2-3), control of TMZ series)?
A: Its IC50 is 1720 ± 2180 nM.

Q: And the IC50 (GBM39; GBM39, read-out: IC50 of A1331852, Control, GBM39 (P3), control of 20Gy series)?
A: The IC50 was 1300 ± 1010 nM.

Q: And the IC50 (dBT132; 96 h, non-radiated control, 4 days drug)?
A: The IC50 was 18.2 µM.

Q: And the IC50 (dBT132; 10Gy radiated)?
A: Its IC50 is 4.31 µM.

Q: What about the IC50 (dBT132; 20Gy radiated) of the same molecule?
A: Its IC50 is 2.93 µM.

Q: What about the “Relative sensitivity (RS)” value (dBT132; control vs 10Gy) of the same molecule?
A: Its value is 4.214.

Q: And the “Relative sensitivity (RS)” value (dBT132; control vs 20Gy)?
A: Its value is 6.192.

Q: And the “Relative sensitivity (RS)” value (GBM123; control vs 15Gy)?
A: The value was 2.457.

Q: And the IC50 (GBM123; 15Gy radiated)?
A: The IC50 was 9.36 µM.

Q: And the IC50 (GBM123; non-radiated control)?
A: The IC50 was 23 µM.

Q: What about the “Relative sensitivity (RS)” value (GBM76; GBM76 (P2), control vs 10Gy) of the same molecule?
A: The value was 31.77 ± 23.61.

Q: And the “Relative sensitivity (RS)” value (GBM76; GBM76 (P2), control vs 15Gy)?
A: Its value is 20.64 ± 5.633.

Q: And the “Relative sensitivity (RS)” value (GBM76; GBM76 (P2), control vs 20Gy)?
A: The value was 34.24 ± 7.988.

Q: What about the “Relative sensitivity (RS)” value (GBM76; GBM76 (P3), control vs TMZ) of the same molecule?
A: The value was 28.21.

Q: And the “IC50 in radiated vs non-radiated cells” value (GBM76; GBM76, 10, 15, 20 Gy vs non-radiated control, 4 days drug)?
A: The value was “lower IC50 radiated cells”.

Q: And the IC50 (GBM76; read-out: IC50 of A1331852, 10Gy, GBM76 (P2), 10Gy radiated)?
A: The IC50 was 1000 ± 367 nM.

Q: And the IC50 (GBM76; read-out: IC50 of A1331852, 15Gy, GBM76 (P2), 15Gy radiated)?
A: The IC50 was 1230 ± 416 nM.

Q: What about the IC50 (GBM76; read-out: IC50 of A1331852, 20Gy, GBM76 (P2), 20Gy radiated) of the same molecule?
A: Its IC50 is 679 ± 49.2 nM.

Q: And the IC50 (GBM76; read-out: IC50 of A1331852, Control, GBM76 (P2), non-radiated control)?
A: The IC50 was 23500 ± 6760 nM.

Q: And the IC50 (GBM76; read-out: IC50 of A1331852, Control, GBM76 (P3), control of TMZ series)?
A: The IC50 was 1680 nM.

Q: And the IC50 (GBM76; read-out: IC50 of A1331852, TMZ, GBM76 (P3), TMZ treated)?
A: Its IC50 is 59.7 nM.

Q: What about the “Relative sensitivity (RS)” value (GBM12; control vs 15Gy) of the same molecule?
A: Its value is 11.31 ± 8.282.

Q: And the IC50 (GBM12; 15Gy radiated)?
A: The IC50 was 22.9 ± 7.61 nM.

Q: And the IC50 (GBM12; non-radiated control)?
A: The IC50 was 390 ± 70 nM.

Q: What about the IC50 (dBT120; 15Gy radiated) of the same molecule?
A: The IC50 was 458 nM.

Q: What about the IC50 (dBT120; non-radiated control) of the same molecule?
A: The IC50 was 5180 nM.

Q: And the “Relative sensitivity (RS)” value (dBT120; control vs 15Gy)?
A: The value was 11.31.

Q: And the “Decrease of tumor bioluminescence” value [2]?
A: Its value is 93.1%.
